Results as given in patent US20090042912A1, “DIPHENYLIMIDAZOLYL COMPOUNDS AS INHIBITORS OF beta-SECRETASE” (Wyeth, priority 2004, published 2009).

Tests used:
human BACE1 = human BACE1 (Homo sapiens, UniProt P56817); experiment: Fluorescent kinetic assay, inhibition of BACE1 (WABC-6 peptide substrate); format: biochemical; conditions: 10 nM enzyme, 25 μM substrate, pH 4.5, room temperature; read-out: IC50 (μM) BACE1.
Method: Evaluation of the Enzyme Activity of Test Compounds and the Inhibition of hBACE1, MuBACE1 and hBACE2 by Test Compounds
The concentration is determined by absorbance at 354 nm using an extinction coefficient ε of 18172 M^−1cm^−1, The substrate stock is stored in small aliquots at −80° C. [Substrate Stock]=ABS^354 nm*10^6/18172 ([…])
Dilution and mixing steps: total reaction volume: 100 μL • 1. 2× inhibitor dilutions in buffer A (66.7 mM Na-Acetate, pH 4.5, 0.0667% CHAPS) are prepared, • 2. 4× enzyme dilution in buffer A (66.7 mM Na-Acetate, pH 4.5, 0.0667% CHAPS) are prepared, • 3. 100 μM substrate dilution in 1× PBS is prepared, • 4. 50 μL 2× Inhibitor and 25 μL 100 μM substrate are added to each well of 96-well plate (from DYNEX Technologies, VWR #: 11311-046), the immediately 25 μL 4× enzyme are added to the inhibitor and substrate mixer, the fluorescence readings are initiated.
Readings at λex 320 nm and λem 420 nm are taken every 40-sec for 30 min at room temperature to determine the linear slope for substrate cleavage rate (vi).

human BACE2 = target: T1, human BACE2 (Homo sapiens, UniProt Q9Y5Z0); experiment: Fluorescent kinetic assay for human recombinant BACE 2 (WABC-6 peptide substrate); format: biochemical; conditions: for IC50: 1.5 nM enzyme, 25 μM substrate, pH 4.5, room temperature; for inhibition at 25 µM: read-out: BACE2. % inhibition
T1 sequence (Q9Y5Z0 63-518): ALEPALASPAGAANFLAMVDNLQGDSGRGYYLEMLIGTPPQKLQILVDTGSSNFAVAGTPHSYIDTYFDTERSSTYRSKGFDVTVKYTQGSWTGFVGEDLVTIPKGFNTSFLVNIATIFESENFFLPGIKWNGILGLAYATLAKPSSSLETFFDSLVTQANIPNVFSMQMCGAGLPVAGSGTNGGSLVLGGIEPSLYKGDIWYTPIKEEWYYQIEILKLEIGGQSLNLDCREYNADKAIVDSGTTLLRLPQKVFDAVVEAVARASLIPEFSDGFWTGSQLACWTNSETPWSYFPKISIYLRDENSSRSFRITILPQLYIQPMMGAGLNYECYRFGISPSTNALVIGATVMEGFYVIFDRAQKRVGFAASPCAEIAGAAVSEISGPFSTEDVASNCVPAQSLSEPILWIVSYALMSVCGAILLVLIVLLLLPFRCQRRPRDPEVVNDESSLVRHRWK
Method: Fluorescent Kinetic Assay for Human Recombinant BACE 2
This assay is used to provide kinetic and selectivity parameters for the analyses of the tested compounds.
Temperature: room temperature.
Dilution and Mixing Steps: Total Reaction Volume.: 100 μL • 1.
Readings at λex 320 nm, λem 420 nm are taken every 40-sec for 30 min at room temperature and to determine the linear slope for substrate cleavage rate (vi).

human BACE1, sequence (P56817 46-501): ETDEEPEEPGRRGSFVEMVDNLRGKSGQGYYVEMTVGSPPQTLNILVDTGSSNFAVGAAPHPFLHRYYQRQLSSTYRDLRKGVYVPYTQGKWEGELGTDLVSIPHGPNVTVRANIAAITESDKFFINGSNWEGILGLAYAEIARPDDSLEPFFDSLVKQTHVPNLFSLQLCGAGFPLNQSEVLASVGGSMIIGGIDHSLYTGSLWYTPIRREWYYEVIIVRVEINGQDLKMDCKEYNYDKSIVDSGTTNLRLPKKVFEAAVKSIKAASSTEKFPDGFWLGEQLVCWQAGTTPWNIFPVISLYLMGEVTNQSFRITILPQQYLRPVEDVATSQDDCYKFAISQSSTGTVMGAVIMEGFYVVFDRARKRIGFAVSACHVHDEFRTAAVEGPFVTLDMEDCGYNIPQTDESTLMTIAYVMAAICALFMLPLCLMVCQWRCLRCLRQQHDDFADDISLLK

SMILES	IC50 (human BACE1)	IC50 (human BACE2)	melting point	inhibition at 25 µM (human BACE2)	inhibition at 15.5 µM (human BACE2; at 15.5 μM)
NC1=NC(c2ccc(OC(F)(F)F)cc2)(c2cccc(-c3cncc(Cl)c3)c2)C2=NCCCN12 (stereo not drawn) [Example 20, 8-[3-(5-chloropyridin-3-yl)phenyl]-8-[4-(trifluoromethoxy)phenyl]-2,3,4,8-tetrahydroimidazo[1,5-a]pyrimidin-6-amine]	0.04 µM	0.54 µM	112 to 116 °C		
COc1ccc(C2(c3cccc(-c4cccnc4F)c3)N=C(N)N3CCCN=C32)cc1 (stereo not drawn) [Example 21, 8-[3-(2-fluoropyridin-3-yl)phenyl]-8-(4-methoxyphenyl]-2,3,4,8-tetrahydroimidazo[1,5-a]pyrimidin-6-amine]	0.09 µM	6.57 µM	117 to 121 °C		
COc1ccc(C2(c3ccc(F)c(-c4cncnc4)c3)N=C(N)N3CCCN=C32)cc1 (stereo not drawn) [Example 23, 8-(4-fluoro-3-pyrimidin-5-ylphenyl)-8-(4-methoxyphenyl)-2,3,4,8-tetrahydroimidazo[1,5-a]pyrimidin-6-amine]	0.12 µM		122 °C	42%	
COc1ccc(C2(c3ccc(F)c(-c4cccnc4F)c3)N=C(N)N3CCCN=C32)cc1 (stereo not drawn) [Example 24, 8-[4-fluoro-3-(2-fluoropyridin-3-yl)phenyl]-8-(4-methoxyphenyl)-2,3,4,8-tetrahydroimidazo[1,5-a]pyrimidin-6-amine]	0.06 µM	8.18 µM	115 °C		
CCOc1ccc(C2(c3cccc(-c4cccnc4F)c3)N=C(N)N3CCCN=C32)cc1OCC (stereo not drawn) [Example 25]	0.083 µM	9.87 µM	202 to 208 °C		
NC1=NC(c2ccc(OC(F)(F)F)cc2)(c2cccc(-c3cc(F)cnc3F)c2)C2=NCCCN12 (stereo not drawn) [Example 28]	0.06 µM	4.68 µM	94 to 102 °C		
COCOc1ccc(C2(c3cccc(-c4cccnc4F)c3)N=C(N)N3CCCN=C32)cc1 (stereo not drawn) [Example 38, 8-[3-(2-Fluoro-pyridin-3-yl)-phenyl]-8-(4-methoxymethoxy-phenyl)-2,3,4,8-tetrahydro-imidazo[1,5-a]pyrimidin-6-ylamine]	0.093 µM		95 to 105 °C		47%
NC1=NC(c2ccc(OC(F)F)cc2)(c2cccc(-c3cccnc3F)c2)C2=NCCCN12 (stereo not drawn) [Example 41, 8-(4-Difluoromethoxyphenyl)-8-[3-(2-fluoropyridin-3-yl)phenyl]-2,3,4,8-tetrahydroimidazo[1,5-a]pyrimidin-6-ylamine]	0.018 µM	1.23 µM	104 to 114 °C		
NC1=NC(c2cccc(-c3cccnc3F)c2)(c2ccc3c(c2)OC(F)(F)O3)C2=NCCCN12 (stereo not drawn) [Example 43, 8-(2,2-Difluoro-benzo[1,3]dioxol-5-yl)-8-[3-(2-fluoro-pyridin-3-yl)-phenyl]-2,3,4,8-tetrahydro-imidazo[1,5-a]pyrimidin-6-ylamine]	0.74 µM		95 to 99 °C	53%	
NC1=NC(c2ccc(OC(F)F)cc2)(c2cccc(-c3cccnc3F)c2)C2=NCC3(CC3)CN12 (stereo not drawn) [Example 44, 8′-[4-(Difluoromethoxy)phenyl]-8′-[3-(2-fluoropyridin-3-yl)phenyl]-2′,8′-dihydrospiro[cyclopropane-1,3′-imidazo[1,5-a]pyrimidin]-6′-amine]	0.02 µM	2.26 µM	98 to 108 °C		
NC1=NC(c2ccc(OC(F)F)cc2)(c2cccc(-c3cccnc3F)c2)C2=NCC3(COC3)CN12 (stereo not drawn) [Example 46, 8-[4-(Difluoromethoxy)phenyl]-8-[3-(2-fluoropyridin-3-yl)phenyl]-2,8-dihydrospiro[imidazo[1,5-a]pyrimidine-3,3′-oxetan]-6-amine]	0.01 µM	0.55 µM	96 to 107 °C		
NC1=NC(c2ccc(OC(F)F)cc2)(c2cccc(-c3cccnc3F)c2)C2=NCC3(CCC3)CN12 (stereo not drawn) [Example 47, 8′-[4-(difluoromethoxy)phenyl]-8′-[3-(2-fluoropyridin-3-yl)phenyl]-2′,8′-dihydrospiro[cyclobutane-1,3′-imidazo[1,5-a]pyrimidin]-6′-amine]	0.01 µM	1.15 µM	220 to 226 °C		
